The text below walks through data of patent US5710011A, “Mediators to oxidoreductase enzymes” (Medisense, Inc., priority 1992, dated 1998).

Series [1] can be described thus: Cyclic voltammetry of the complexes in aqueous buffer (PBS). The series is classed as physicochemical. The note with it: for EOX: arene chromium tricarbonyl complexes, aqueous electrochemistry; for potential of the voltammetric wave: manganese complexes in aqueous buffer (PBS).
Series [2] can be described thus: Cyclic voltammetry of screen-printed carbon electrodes containing the complex. The series is classed as physicochemical. To be noted: for oxidation wave potential: screen-printed carbon electrodes, scan rates 50 and 100 mV/s. The method, then: (§1) Screen-printed electrodes incorporating Compound 6 were produced from an organic carbon ink containing the chromium complex at a level of 3.5 mg/g ink. FIG. 2a comprises cyclic voltammograms of electrodes containing the chromium complex Compound 6 at 50 mV/s and 0.2 μA/cm in PBS, and FIG. 2b the catalytic wave upon addition of 100 μl glucose oxidase recorded at 20 mV/s and 0.5 μA/cm. […] From FIG. 2b, it is seen that GOD mediation occurs on applying mixtures of enzyme and glucose to the electrodes, with small catalytic currents of about 1 μA.
Further work with the dithiocarbamate complexes Compounds 10 to 12 was carried out with screen-printed carbon electrodes produced from carbon inks mixed with each of the complexes. […] Catalytic currents in the region of 4 μA were recorded in the presence of GOD and glucose. Variable but increased currents of up to 29 μA were obtained with 0.1 M glucose when the enzyme was confined in the carbon electrode with the mediator, see FIG. 9.

Series [3] deals with T1, glucose oxidase (GOD) (Aspergillus niger, UniProt P13006). In words: Mediation to glucose oxidase with screen-printed carbon electrodes containing the mediator. It counts as biochemical. The method, then: (§2) The phosphate buffer solution (PBS) of 0.15 M phosphate (with 0.2 M sodium chloride as supporting electrolyte), pH 7.0, containing 0.1 M glucose was prepared using Analar reagents from Merck BDH. The solution was stored overnight at 4° C. prior to use to allow equilibration of the α- and β-anomers. Glucose oxidase (EC 1.1.3.4 from Aspergillus niger) was supplied by Sturge Enzymes. Horseradish peroxidase was obtained from Biozyme.
as §1
Further work with the dithiocarbamate complexes Compounds 10 to 12 was carried out with screen-printed carbon electrodes produced from carbon inks mixed with each of the complexes. […] Catalytic currents in the region of 4 μA were recorded in the presence of GOD and glucose. […]

For series [4], the target named is T1, glucose oxidase (GOD). The experiment in a line: Mediation to glucose oxidase in solution (catalytic wave, enzyme titration in 0.1 M glucose/PBS). It counts as biochemical.
The conditions of series [5]: cited from earlier work.
Series [6] has as its target T2, Horseradish peroxidase (HRP) (Armoracia rusticana, UniProt P00433).
T2 sequence (P00433 31-338): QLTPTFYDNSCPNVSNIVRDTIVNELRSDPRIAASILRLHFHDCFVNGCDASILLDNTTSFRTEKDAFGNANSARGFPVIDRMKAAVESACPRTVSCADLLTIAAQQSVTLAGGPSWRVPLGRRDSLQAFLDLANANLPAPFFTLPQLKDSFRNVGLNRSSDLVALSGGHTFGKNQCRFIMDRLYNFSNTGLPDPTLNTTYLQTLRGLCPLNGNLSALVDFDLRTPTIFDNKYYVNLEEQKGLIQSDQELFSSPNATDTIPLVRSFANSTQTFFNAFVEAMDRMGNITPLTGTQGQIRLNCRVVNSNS
In words: Mediation to horseradish peroxidase, rotating ring-disk voltammetry. The series is classed as biochemical. To be noted: mediator 0.5 mM, HRP 280 U, ring poised at -100 mV, disk scanned -100 to -600 mV. The method, then:
as §2
The ability of the β-cyclodextrin adduct of the manganese complex Compound 10 to mediate with […] (HRP) was assessed by comparing it with 1,1'-dimethylferrocene ethanolamine using rotating ring-disk voltammetry according to a literature method (Anal. Chem., 62 (1990) 2429). Experiments were carded out using a glass cell (14 ml capacity) containing a platinum counter electrode with a calomel reference electrode. A gold-gold ring-disk electrode, rotated at 4 Hz, was immersed in a phosphate-buffered saline solution of the mediator (0.5 mM) containing HRP (280 U). The catalytic ring current was then measured while poising the ring electrode at -100 mV and scanning the disk electrode from -100 to -600mV to generate hydrogen peroxide.

The conditions of series [7]: pH 7.
Series [8] in a line: Solubility / stability in aqueous buffer. To be noted: aqueous buffer / water.
Series [9] addresses T1, glucose oxidase (GOD). To be noted: literature value (Anal. Chem., 56 (1984) 667); cited from earlier work.
[10] abbreviates: complex in aqueous buffer (PBS).
The mark [11] stands for this setting: 0.5 mM in PBS with added β-cd (0.5-5.0 mM).

T1 sequence (P13006 17-605): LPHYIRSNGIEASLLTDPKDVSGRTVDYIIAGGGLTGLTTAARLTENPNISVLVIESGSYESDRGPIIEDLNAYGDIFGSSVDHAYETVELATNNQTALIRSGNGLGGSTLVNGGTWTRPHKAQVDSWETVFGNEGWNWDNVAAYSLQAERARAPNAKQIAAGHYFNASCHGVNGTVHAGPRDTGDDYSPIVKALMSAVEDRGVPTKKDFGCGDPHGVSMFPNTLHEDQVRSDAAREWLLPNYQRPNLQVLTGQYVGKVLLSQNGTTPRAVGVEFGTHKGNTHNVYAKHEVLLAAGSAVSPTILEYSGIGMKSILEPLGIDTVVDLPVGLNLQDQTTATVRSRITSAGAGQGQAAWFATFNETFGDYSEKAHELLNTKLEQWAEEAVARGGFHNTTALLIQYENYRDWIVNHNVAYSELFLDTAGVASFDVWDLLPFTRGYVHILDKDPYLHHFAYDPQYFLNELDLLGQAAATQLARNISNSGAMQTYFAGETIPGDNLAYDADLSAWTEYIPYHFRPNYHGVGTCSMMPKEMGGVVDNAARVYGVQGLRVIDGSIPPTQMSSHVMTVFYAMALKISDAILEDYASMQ

Take `CN(C)c1ccccc1.[C-]#[O+].[C-]#[O+].[C-]#[O+].[Cr]` [Compound 1]: in [1], the EOX entry is given as “+250 mV”. With [MeCpMn(NO)(phen)]PF6 [Compound 15], the “reversibility of the voltammetric wave” value in [1] (setting [10]) is “irreversible electrochemistry”. Also, in series [1], the “potential of the voltammetric wave” value is “about +600 mV”. Consider [MeCpMn(NO)(S2 CNEt2)] [Compound 11], for which, in [2], the oxidation wave potential entry is recorded as “+300 mV”. For `Cc1c(C)c(N)c(C)c(C)c1N.[C-]#[O+].[C-]#[O+].[C-]#[O+].[Cr]` [Compound 6], the EOX entry in [1] is recorded as “+40 mV”. For the same compound, the “reversibility of the voltammetric wave” value in series [1] (setting [10]) is on record as “reversible wave”; in series [2] (screen-printed electrodes, PBS applied), “reversible wave”. In addition, the catalytic current entry on glucose oxidase (GOD) [3] (mixtures of GOD and glucose applied to screen-printed electrodes containing the mediator) was “about 1 μA”. In series [2] (screen-printed electrodes, 3.5 mg complex/g ink, PBS applied), this compound yielded a mid-point potential of -15 mV. On to `Nc1cc(N)cc(N)c1.[C-]#[O+].[C-]#[O+].[C-]#[O+].[Cr]` [Compound 7], for which the EOX result in series [1] is “+50 mV”. On to `Cc1cc[cH-]c1.[C-]#[O+].[C-]#[O+].[C-]#[O+].[Mn]` [Compound 8, (methylcyclopentadienyl)manganese tricarbonyl], for which the “second order rate coefficient for the oxidation of reduced GOD” value on glucose oxidase (GOD) [4] (0 to 25 μl GOD titrated into mediator in 0.1 M glucose/PBS, from icat versus [GOD]^1/2) was determined as 210000 M⁻¹ s⁻¹. In the case of [MeCpMn(NO)(S2 CNMe2)] [Compound 10], the catalytic current entry at glucose oxidase (GOD) [3] (0.1 M glucose, enzyme confined in the carbon electrode with the mediator) is reported as “up to 29 μA”. Also, the oxidation wave potential entry in series [2] is “+240 mV”. Regarding [MeCpMn(NO)(bipy)]PF6 [Compound 14], the “reversibility of the voltammetric wave” value in [1] (setting [10]) is on record as “irreversible electrochemistry”. Moreover, in series [1], the “potential of the voltammetric wave” value is “about +600 mV”.

Consider “[MeCpMn(NO){(SCCN)2 }][NEt4 ] [Compound 16]”, for which, in [1] (setting [11]), the E1/2 entry is listed as “+5 mV” and the ΔEp worked out at 65 mV. In addition, the “reversibility of the voltammetric wave” value in series [1] (0.5 mM in buffer with added β-cd (0.5-5.0 mM)) is recorded as “reversible wave”. The same compound returned an Eox in [1] (0.6 mM in PBS, 50 mV/s) of -25 mV. With `COc1ccc(N)c(OC)c1.[C-]#[O+].[C-]#[O+].[C-]#[O+].[Cr]` [Compound 5], the EOX entry in series [1] is “+170 mV”. Turning to `[C-]#[O+].[C-]#[O+].[C-]#[O+].[Mn].[c-]1[c-][c-][cH-][c-]1` [Cyclopentadienyl manganese tricarbonyl], the “oxidation potential, more positive than ferrocene” value in series [5] (in acetonitrile, relative to ferrocene) is approximately 1.2 V. In the case of [MeCpMn(NO)(S2 CNMe2)]β-cyclodextrin, the ΔEp in [1] (0.1 M glucose/PBS) turned out to be 70 mV. The “reversibility of the voltammetric wave” value in series [1] (setting [10]) was “reversible wave”. The “potential of the voltammetric wave” value in [1] is given as “+255 mV”. For the same compound, the “icat (catalytic wave)” value on glucose oxidase (GOD) [4] (upon addition of GOD and glucose, 0.1 M glucose/PBS) amounted to 9.7 μA. Moreover, the “catalytic ring current, comparison of mediators” value in series [6] is recorded as “identical catalytic currents”. Moreover, the “solubility in PBS” value in series [7] is “at least 0.5 mM”. In the case of [MeCpMn(NO)(CN)2 ]Na [Compound 13], the “reversibility of the voltammetric wave” value in series [1] (setting [10]) is on record as “reversible wave”. For the same compound, the “potential of the voltammetric wave” value in series [1] is on record as “+440 mV”. Regarding `[C-]#[O+].[C-]#[O+].[C-]#[O+].[Cr].c1ccccc1` [benzene chromium tricarbonyl], the “aqueous solubility (in words)” value in series [8] was “negligible solubility in buffer”. In addition, the half wave potential result in series [5] (in dichloromethane) was “+710 mV vs SCE”. Consider `OCCN(CCO)c1ccccc1.[C-]#[O+].[C-]#[O+].[C-]#[O+].[Cr]` [Compound 3], for which the EOX result in series [1] was “+250 mV”. With “1,1'-dimethylferrocene ethanolamine [reference compound]”, the “catalytic ring current, comparison of mediators” value in series [6] was “identical catalytic currents”. ferrocene monocarboxylic acid: at glucose oxidase (GOD) [9], the “second order rate constant for the oxidation of reduced GOD” value was 200000 M⁻¹ s⁻¹. As to `Nc1ccc(N)cc1.[C-]#[O+].[C-]#[O+].[C-]#[O+].[Cr]` [Compound 4], the EOX entry in [1] is “+135 mV”. Regarding [MeCpMn(NO)(CO)2 ]PF6 [Compound 9], in [1] (aqueous buffer, irreversibly oxidized), the “oxidation potential of the species formed by decomposition” value is “+230 mV”.
